Here are results for one compound from US6462086B1, “Non-malignant disease treatment with Ras antagonists” (Ramot University Authority for Applied Research and …, priority 1999, dated 2002).

Test [1] deals with acute experimental autoimmune encephalomyelitis (EAE) in SJL/J mice. The experiment in a line: Acute EAE in SJL/J mice, clinical signs. Format: in vivo, mouse. The conditions noted are these: compared to controls. As to the method:
Induction of acute EAE was based on a modification of Bernard's protocol (13). Briefly, equal volumes of MSCH (10 mg/ml in PBS) and complete Freud's adjuvant (CFA) enriched with Mycobacterium tuberculosis H37Ra (6 mg/ml) (Difco Laboratories, Detroit, Mich.) were homogenized in a blender. For each mouse, 0.1 ml (0.5 mg) of the emulsion were injected s.c. into the four footpads. Immediately thereafter and 2 days later, mice were injected i.v. with Bordetella pertussis (2.7×10^9 organisms per mouse) (Rafa Laboratories, Jerusalem, Israel). Animals were examined daily for signs of disease. The first clinical signs appeared on day 10-12 post immunization and were scored according to the following six point scale: 0: no abnormality; 1: mild tail weakness (floppy tail); 2: tail paralysis; 3: tail paralysis and hind leg paresis; 4: hind leg paralysis or mild forelimb weakness; 5: quadriplegia or moribund state; 6: death.
FTS (as powder) was diluted in chloroform (35.8 mg/ml of FTS=0.1 M) and kept in aliquods. The content (25 μl) of one aliquod was evaporated under nitrogen and then disolved in 6 μl absolute ethanol and 7 μl of 1N NaOH; 890 μl of PBS were subsequently added. Each mouse received 0.1 ml of this solution daily (0.1 mg/mouse or 5 mg/kg) intraperitoneally (i.p.).

For test [2], the system named is splenocytes from ICR mice. It counts as cell-based, mouse. Conditions: 10 and 50 μM FTS. As to the method: An examination was made as to whether the effect of FTS on Ras levels was of functional importance in splenocytes prepared from 2 ICR mice. Stimulation of ^3H-thymidine incorporation into DNA was used as measure of splenocyte proliferation in the presence of lipopolysaccharide (LPS) or concanavalin A (ConA), and in the presence of 0, 10 and 50 μM FTS. The methods used are detailed below. […] Also, FTS had no effect on basal ^3H-thymidine incorporation into DNA. The concentrations of FTS at which inhibition of lymphocyte cell growth were observed reflect expected levels of the drug when given in animals at doses of 5-10 mg/kg.
Mice were killed by cervical dislocation and spleens removed with sterile precautions and placed in disposable plastic Petri dishes containing Dulbecco's phosphate-buffered saline (DPBS). […] Cells from each microculture were harvested on fibroglass filters with multiharvester and counted in liquid scintillation β counter.
Mitogens and antigens were diluted to appropriate concentrations in the incubation medium and added to the wells at the beginning of incubation period to give a final concentration of 1.0 μg/ml lipopolysaccharide (LPS), 1.0 μg/ml Concanavalin A (ConA) or 10 μg/ml beta2-Glycoprotein I (beta2-GPI). Spontaneous proliferation (without mitogen or antigen) was also assessed. […]
The results are expressed as the mean value of stimulation index per group. […]

Another test relates to EAN in Lewis rats. In words: Experimental autoimmune neuritis (EAN) in Lewis rats, clinical score and rotarod. It counts as in vivo, rat. (In general: The rotarod test checks motor coordination on a turning rod.)
The subject of a further test is human HSC. The experiment in a line: PDGF-induced migration of human hepatic stellate cells (modified Boyden chamber). It counts as cell-based. The conditions noted are these: PDGF-BB 10 ng/ml, 24 h FTS, read-out: FTS concentration inhibiting (50%) the PDGF-stimulated cell migration. As to the method:
Human HSCs were isolated from wedge sections of normal human liver unsuitable for transplantation as previously reported (6, 7). Briefly, after a combined digestion with collagenase/pronase, HSCs were separated from other liver nonparenchymal cells by ultracentrifugation over gradients of stractan (Cellsep™ isotonic solution, Larex Inc., St. Paul, Minn.). Extensive characterization was performed as described in (7). Cells were cultured on plastic culture dishes (Falcon, Becton Dickinson, Lincoln Park, N.J.) in Iscove's modified Dulbecco's medium supplemented with 0.6 U/ml insulin, 2.0 mmol/L glutamine, 0.1 mmol/L nonessential amino acids, 1.0 mmol/L sodium pyruvate, antibiotic antifungal solution (all provided by Gibco Laboratories, Grand Island, N.Y.) and 20% fetal bovine serum (Imperial Laboratories, Andover, U.K.). Experiments described in this study were performed on cells between third and fifth serial passages (1:3 split ratio) using three independent cell lines.
Cell migration was carried out as previously described (9, 10). […] After fixing in 96% methanol and staining with Harris' hematoxylin solution, cells that migrated to the underside of the filters were quantitated as the mean number of cells in 10 high-power fields (HPF). […] Possible cytotoxic effects were monitored by the trypan blue exclusion test.

Setting [3] is: FTS 5 mg/kg/day i.p. days 0-10 only.

Molecules are shown by their SMILES.

Take `CC(C)=CCC/C(C)=C/CC/C(C)=C/CSc1ccccc1C(=O)O` [FTS, farnesyl thiosalicylic acid]: in test [1], the “clinical course of EAE (FIG. 1)” value was “significantly ameliorated”. Moreover, in test [2], the “LPS and ConA induced splenocyte proliferation (stimulation index)” value was “significant reduction”; the “basal 3H-thymidine incorporation into DNA” value is “no effect”. For the same compound, in the test with EAN in Lewis rats (setting [3]), the recovery entry was “recovered faster than the other groups” and the severity of disease result was “equal severity to controls”. For the same compound, in the test with EAN in Lewis rats (FTS 5 mg/kg/day i.p. days 0-28), the “clinical score / rotarod, peak of disease” value is on record as “significantly ameliorated the peak of disease”. Besides, in the test with EAN in Lewis rats (FTS days 0-10 only), the “rats with brief relapses of clinical signs during recovery” value was “Three of the 5 rats”. Besides, in the test with EAN in Lewis rats (treatment from day 10), the recovery result is reported as “recovered significantly faster”. In addition, the “Mean clinical scores for days 15-19” value with EAN in Lewis rats (treatment from day 10, ±SE, n=10, control 4.12±0.61) was 2.74±0.66. In addition, the IC50 in the test with human HSC is 2000 to 2500 nM.
